Values quoted from earlier work, collected in paper PMC5960647 (Experimental & Molecular Medicine, 2018).
Where no end group is shown, it is not given here.

Columns and labels:
CCKBR [1] = details: cited from earlier work
CCKBR [2] = details: dorsal root ganglion neurons, CCKBR in the same neuron; cited from earlier work

Molecule | effect on opioid-induced analgesia (CCKBR [1]) | effect on pain threshold of administration per se (CCKBR [1]) | effect on electroacupuncture analgesia (CCKBR [1]; caudate nucleus, through CCKBR) | effect on opioid analgesia (CCKBR [1]; shown with L-365,260) | effect on MOR-mediated inhibition of voltage-gated calcium current (CCKBR [2])
Cc1cccc(NC(=O)N[C@@H]2N=C(c3ccccc3)c3ccccc3N(C)C2=O)c1 [L-365,260] | potentiated opioid-induced analgesia | did not affect pain threshold | – | – | –
cholecystokinin octapeptide (DYMGWMDF; ends and bridges not checked; UniProt P06307 96-103, looked up) [CCK-8] | – | – | antagonism to electroacupuncture analgesia | inhibited opioid analgesia through CCKBR | antagonized
